Measurements reported in ChEMBL document CHEMBL4425159, “Design, synthesis and antimalarial evaluation of novel thiazole derivatives” (Bioorg Med Chem Lett, 2016).

Experiments:
Plasmodium falciparum = assay: Antimalarial activity against chloroquine sensitive-Plasmodium falciparum 3D7 assessed as growth inhibition preincubated for 24 hrs followed by [3H]-hypoxanthine incorporation measured after 24 hrs by scintillation counting; format: functional, organism-based
HepG2 = assay: Cytotoxicity against human HepG2 cells assessed as cell growth inhibition; format: cell-based
[1] = Lipophilicity, log D of the compound by chromatographic method; format: physicochemical

| Compound | IC50 (Plasmodium falciparum) [nM] | further results |
| --- | --- | --- |
| CC(C)c1sc(N(C)CCO)nc1C(=O)Nc1ccc(F)cc1C(F)(F)F | 3260 | – |
| CC(C)c1sc(N2CCN(C)CC2)nc1C(=O)Nc1ccccc1C(F)(F)F | 31 | IC50 (HepG2): 50000 nM |
| CC(C)c1sc(N2CCN(C)CC2)nc1C(=O)Nc1cc(F)cc(F)c1 | > 5000 | – |
| CC(C)c1sc(N2CCN(C)CC2)nc1C(=O)Nc1c(Cl)cc(F)cc1Cl | > 5000 | – |
| Cc1ccc(NC(=O)c2nc(N3CCN(C)CC3)sc2C(C)C)c(Cl)c1 | 3270 | – |
| CC(C)c1sc(N2CCN(C)CC2)nc1C(=O)Nc1cnccc1Cl | 1700 | – |
| CC(C)c1sc(N2CCN(C)CC2)nc1C(=O)Nc1ccccc1OC(F)(F)F | 34 | IC50 (HepG2): > 100000 nM |
| CC(C)c1sc(N2CCN(C)CC2)nc1C(=O)Nc1ccc(F)cc1 | > 5000 | – |
| COc1ccccc1NC(=O)c1nc(N2CCN(C)CC2)sc1C(C)C | 350 | – |
| CC(C)c1sc(N2CCOCC2)nc1C(=O)Nc1ccc(F)cc1C(F)(F)F | 102 | – |
| CC(C)c1sc(N2CCN(C)CC2)nc1C(=O)Nc1ccccc1S(N)(=O)=O | > 5000 | – |
| Cc1cc(F)ccc1NC(=O)c1nc(N2CCN(C)CC2)sc1C(C)C | 720 | – |
| CC(C)c1sc(N2CCN(C)CC2)nc1C(=O)Nc1c(F)cccc1F | > 5000 | – |
| CC(C)c1sc(N2CCN(C)CC2)nc1C(=O)Nc1ccccc1CO | > 5000 | – |
| CC(C)c1sc(N2CCN(C)CC2)nc1C(=O)Nc1ccc(C(F)(F)F)cc1Cl | > 5000 | – |
| CC(C)c1sc(N2CCN(C)CC2)nc1C(=O)Nc1ccccc1C#N | 98 | IC50 (HepG2): 32000 nM |
| CC(C)c1sc(N2CCN(C)CC2)nc1C(=O)Nc1ccccc1Cl | 58 | IC50 (HepG2): > 100000 nM |
| CC(C)c1sc(N(C)CCN(C)C)nc1C(=O)Nc1ccc(F)cc1C(F)(F)F | 3150 | – |
| CC(C)c1sc(N2CCN(C)CC2)nc1C(=O)Nc1ccccc1C(N)=O | > 5000 | – |
| CC(C)c1sc(N2CCN(C)CC2)nc1C(=O)Nc1ccc(F)cc1Cl | 58 | IC50 (HepG2): > 100000 nM |
| CC(C)c1sc(N2CCN(C)CC2)nc1C(=O)Nc1ccc(F)cc1F | 1190 | – |
| COCCN(C)c1nc(C(=O)Nc2ccc(F)cc2C(F)(F)F)c(C(C)C)s1 | 590 | – |
| CC(C)c1sc(N2CCN(C)CC2)nc1C(=O)Nc1cccnc1Cl | 80 | chromatographic logD [1]: 7.8; IC50 (HepG2): > 100000 nM |
| CC(C)c1sc(N2CCN(C)CC2)nc1C(=O)Nc1ccccc1F | 260 | – |
| CC(C)c1sc(N2CCN(C)CC2)nc1C(=O)Nc1cccc(Cl)n1 | 350 | – |
| CC(C)c1sc(N2CCN(C)CC2)nc1C(=O)Nc1c(Cl)cc(C(F)(F)F)cc1Cl | > 5000 | – |
| CC(C)c1sc(N2CCN(C)CC2)nc1C(=O)Nc1cccnc1 | > 5000 | – |
| CC(C)c1sc(N2CCN(C)CC2)nc1C(=O)Nc1ncccc1Cl | > 5000 | – |
| CC(C)c1sc(N2CCN(C)CC2)nc1C(=O)Nc1ccc(F)cc1C(F)(F)F | 24 | logD [1]: 9.06; IC50 (HepG2): 78000 nM |
